Patent US8182794B2, “Sunless tanning products and processes” (Concept Laboratories, priority 2003, dated 2012)
Entries after “also recorded” stand apart in the source; their conditions may differ.

test system: human skin; experiment: Colorimeter (Minolta CR-10) L* a* b* readings of sunless tan on forearm skin; assay type: in vivo; conditions: 5% additive with 5% DHA and 5% MSM; Table 1 series
Procedure: An equal amount of each formula solution (approximately 150 mg.) from Table 1 was applied to 2″×2″ adjacent sections of forearm, allowed to dry and covered with clothing for the duration of the testing. The application areas were visibly the same color prior to treatment with the solutions and this was confirmed via calorimeter readings. Readings were typically made 24-48 hours post application of the test solutions. Three calorimeter readings were made of each treatment area with a Minolta CR-10 adapted for human skin readings and the readings were averaged. All eight formulas shown in Table 1 were evaluated on several individuals with Fitzpatrick skin types I-III. Although the absolute values for the tanning responses differed between individuals, the relative differences between formulations in terms of tanning response were the same. Typical results of the testing of one subject were recorded in average L* a* b* color values and are shown in Table 2 along with baseline skin color. […]
The results shown in Table 12 were confirmed by several repeat experiments conducted on several relatively light-skin individuals (Fitzpatrick Type I-III). The data are based on calculation of the average increase in skin darkening based on skin color changes measured by the colorimeter “L” or light-dark value [(Δ L)]; the average increase in skin hue intensity measured simultaneously by both the colorimeter “a*” or red value and the colorimeter “b*” or yellow value (Δ√a^2+b^2); and, the average increase in total tan which adds the changes in darkness and hue increases [(Δ L)+Δ√a^2+b^2].

Row | SMILES | effect of additive on tanning response of DHA and MSM
1 | OCCCCO [butylene glycol] | darker tanning responses; also recorded: significantly increase
2 | CC(O)CO (stereo not drawn) [propylene glycol] | darker tanning responses
3 | CCCC(O)CO (stereo not drawn) [pentylene glycol, 1,2-pentanediol] | darker tanning responses; also recorded: significantly increase
